From BindingDB's records for doi:10.7270/Q2CR5RTC (Burnham Center For Chemical Genomics, 2010) come the findings set out here.

Structures are written as SMILES. Where only a bound is given, the exact number is not on record here.

As a reminder, the IC50 is the midpoint of a concentration-inhibition curve. A low value points to inhibition by little substance.

This assay concerns the target T1, Tyrosine-protein phosphatase non-receptor type 22 (Homo sapiens, UniProt Q9Y2R2).
T1 sequence (Q9Y2R2 whole entry): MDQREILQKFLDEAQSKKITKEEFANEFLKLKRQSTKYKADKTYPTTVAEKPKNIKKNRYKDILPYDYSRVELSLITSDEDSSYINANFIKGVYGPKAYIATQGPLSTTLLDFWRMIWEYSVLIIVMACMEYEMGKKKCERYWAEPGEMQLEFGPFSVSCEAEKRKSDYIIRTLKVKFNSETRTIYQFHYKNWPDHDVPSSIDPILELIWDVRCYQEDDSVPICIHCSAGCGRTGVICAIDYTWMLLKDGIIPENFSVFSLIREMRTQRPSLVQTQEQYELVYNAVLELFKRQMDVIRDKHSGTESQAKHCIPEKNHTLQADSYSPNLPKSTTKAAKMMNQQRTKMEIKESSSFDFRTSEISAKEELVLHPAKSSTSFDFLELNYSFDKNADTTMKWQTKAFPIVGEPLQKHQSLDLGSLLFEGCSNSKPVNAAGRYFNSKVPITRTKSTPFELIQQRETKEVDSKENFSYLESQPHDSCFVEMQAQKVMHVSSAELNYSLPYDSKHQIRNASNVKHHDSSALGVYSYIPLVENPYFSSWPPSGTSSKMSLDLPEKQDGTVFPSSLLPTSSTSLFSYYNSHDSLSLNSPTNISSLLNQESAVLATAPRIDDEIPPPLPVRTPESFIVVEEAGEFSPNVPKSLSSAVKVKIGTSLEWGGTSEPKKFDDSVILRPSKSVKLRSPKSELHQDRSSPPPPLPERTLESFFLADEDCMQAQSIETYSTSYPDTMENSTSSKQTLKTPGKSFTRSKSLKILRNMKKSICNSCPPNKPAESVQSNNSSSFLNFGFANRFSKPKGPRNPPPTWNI
The assay can be described thus: LYP phosphatase inhibitors, dose response, biochemical, fluorescence intensity, uHTS hits, set 2 (AID 435024).
Compound `N=C(NN=Cc1ccc2c(c1)OCO2)Sc1cc(O)n(-c2ccc(C(=O)O)cc2)c1O` [4-(3-{[[(2E)-2-(1,3-benzodioxol-5-ylmethylene)hydrazino](imino)methyl]thio}-2,5-dioxopyrrolidin-1-yl)benzoic acid] gave an IC50 of 8.58 µM. This lies in the single-digit micromolar range. Next, `Cc1ccc(NN=C2C(=O)N(CN3CCOCC3)c3ccccc32)cc1` [(3Z)-3-[(4-methylphenyl)hydrazinylidene]-1-(4-morpholinylmethyl)-2-indolone]: more than 79.4 µM; `O=C1C([N+](=O)[O-])=CC(Br)=CC1/C=N/n1cnnc1` (stereo not given) [MLS000714804]: more than 79.4 µM.

The compound `COC1=CC=CC(/C=N/NC(=O)c2cc3cc([N+](=O)[O-])ccc3s2)C1=O` (stereo not given) [SMR000237814] displayed an IC50 of 13.1 µM. In turn, `CCOC(=O)NC(=O)C(C=Nc1ccc(C)cc1)C(=O)NC(=O)OCC` [ethyl 2-{[(ethoxycarbonyl)amino]carbonyl}-3-(4-toluidino)acryloylcarbamate] had an IC50 of more than 79.4 µM.
